Experimental findings from ChEMBL document CHEMBL1201862, “PubChem BioAssay data set” (2004) are described below.

Common to all, as to assay: DTP human tumour cell line panel, 48 h
Assay [1] has as its system MOLT-4.
Assay [2] relates to SNB-19.
Assay [3] deals with SF-295.
Assay [4] has as its system SNB-75.
For assay [5], the system named is HCT-116.
The subject of assay [6] is KM12.
Assay [7] has as its system SK-OV-3.
Assay [8] concerns CCRF-CEM.
Assay [9] deals with K562.
In assay [10] the test system is SN12C.
Assay [11] relates to HL-60.
For assay [12], the system named is NCI-H522.
Assay [13] has as its system SK-MEL-5.
Assay [14] concerns A498.
Assay [15] concerns 786-0.
Assay [16] deals with HCT-15.
Assay [17] concerns LOX IMVI.

Structures are written as SMILES.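 Five compound concentrations were applied to cells in 96-well plates for 48 hours; endpoints were derived by simple linear interpolation of the resulting dose-response curve. GI50 = concentration required for 50% inhibition of growth.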 Calls of active or inactive are those of the source. Rule as the data show it: active = GI50 up to about 1.1 µM and inactive = higher.

As usually defined, the GI50 is the concentration that inhibits growth by half. Turning to `O=C1C(Cl)N(c2cccc([N+](=O)[O-])c2)C1c1c[nH]c2ccccc12` (centres undefined), the GI50 in assay [1] is 8.38 µM (inactive); in assay [2], 23.9 µM (inactive); in assay [3], 17.8 µM (inactive); in assay [4], 22.9 µM (inactive); in assay [5], 19.2 µM (inactive); in assay [6], 20.2 µM (inactive). Further, the GI50 is 11.1 µM (inactive) in [7]; 4.61 µM (inactive) in assay [8]; 19 µM (inactive) in assay [9]; 28.6 µM (inactive) in [10]; 22.3 µM (inactive) in assay [11]; 16 µM (inactive) in assay [12]. In addition, the GI50 in [13] was 17 µM (inactive).
Take `Cn1c(=O)nc2n(-c3ccc(Br)cc3)c3ccccc3nc-2c1=O`: the GI50 in [1] is 6.25 µM (inactive); in assay [2], 2.9 µM (inactive); in assay [3], 3.66 µM (inactive); in [4] it was 4.65 µM (inactive); in [5] it was 4.11 µM (inactive); in assay [6], 8.83 µM (inactive). In addition, the GI50 in assay [14] is 11.2 µM (inactive); in [7] it was 27.8 µM (inactive); in [8], 3.81 µM (inactive); in [15], 3.74 µM (inactive); in assay [9] it was 5.43 µM (inactive); in [10], 4.97 µM (inactive). Moreover, the GI50 in assay [16] was 3.55 µM; in [12], 4.39 µM (inactive); in assay [13] it was 1.77 µM (inactive).
On to `CCC(COC(=O)CC[C@@H](NC(=O)C(C)NC(=O)C(C)OC1C(O)C(CO)OC(OCc2ccccc2)C1NC(C)=O)C(N)=O)NC1c2ccccc2Nc2cccc([N+](=O)[O-])c21` (some centres undefined), for which the GI50 in [1] is > 100 µM (inactive); in assay [2], > 100 µM (inactive); in assay [3], > 100 µM (inactive); in [4], 94.8 µM (inactive); in assay [5], > 100 µM (inactive); in [6], > 100 µM (inactive). The GI50 in [7] is > 100 µM (inactive); in assay [17] it was > 100 µM (inactive); in assay [8], > 100 µM (inactive); in assay [15], 67.1 µM (inactive); in assay [9] it was > 100 µM (inactive); in assay [10], > 100 µM (inactive). The GI50 in [16] is > 100 µM; in [11], > 100 µM (inactive); in assay [12], > 100 µM (inactive); in [13] it was > 100 µM (inactive).
For `COC(=O)C12CC(c3ccccc31)C1C(=O)OC(=O)C12` (centres undefined), the GI50 is > 100 µM (inactive) in assay [1]; > 100 µM (inactive) in [2]; > 100 µM (inactive) in [3]; 17.5 µM (inactive) in assay [4]; > 100 µM (inactive) in [5]; > 100 µM (inactive) in [6]. Moreover, the GI50 is > 100 µM (inactive) in assay [17]; > 100 µM (inactive) in assay [8]; > 100 µM (inactive) in assay [15]; > 100 µM (inactive) in assay [9]; > 100 µM (inactive) in assay [10]; > 100 µM in assay [16]. For the same compound, the GI50 in assay [11], in assay [12] and in [13] was > 100 µM (inactive) in each case.
On to `CC(=O)c1ccc(NC(=O)C(=O)C(C#N)CC(C)(C)C=O)cc1` (centres undefined), for which the GI50 in assay [1], in [2], in [3], in [5], in [6] and in assay [14] was > 100 µM (inactive) in each case. Also, the GI50 in assay [7], in [17], in assay [8], in [15], in [9] and in assay [10] was > 100 µM (inactive) each time. The GI50 in [16] is > 100 µM; in [11], > 100 µM (inactive); in assay [12] it was > 100 µM (inactive); in [13] it was > 100 µM (inactive).
Regarding `O=C1NP23(OCCO2)Oc2ccccc2C3(C(F)(F)F)O1` (centres undefined), the GI50 in assay [1], in [2], in assay [3], in [4], in [5] and in [6] was > 100 µM (inactive) in each case. In addition, the GI50 in [7] is > 100 µM (inactive); in assay [17] it was > 100 µM (inactive); in assay [8], > 100 µM (inactive); in assay [9], > 100 µM (inactive); in [10] it was > 100 µM (inactive); in assay [16], 72.3 µM. For the same compound, the GI50 in [11], in assay [12] and in [13] was > 100 µM (inactive) each time.
With `Cc1cc(NS(=O)(=O)c2ccc(NC(=O)c3cccc4cc5ccccc5nc34)cc2)no1`, the GI50 in assay [1] is 17.1 µM (inactive); in assay [2] it was 6.46 µM (inactive); in assay [3], 19.9 µM (inactive); in assay [4], 17.6 µM (inactive); in assay [5], 6.7 µM (inactive); in assay [6], 16.4 µM (inactive). The GI50 in [14] was 16.7 µM (inactive); in assay [7] it was 39.6 µM (inactive); in assay [17], > 10 µM (inactive); in [8], 16 µM (inactive); in assay [15], 16.7 µM (inactive); in assay [9], 18.1 µM (inactive). Moreover, the GI50 in [10] was 18 µM (inactive); in assay [16], 14.7 µM; in [12], 15.5 µM (inactive); in assay [13] it was 15.6 µM (inactive).
As to `C=C(C(=C)P(=S)(c1ccccc1)c1ccccc1)P(=S)(c1ccccc1)c1ccccc1`, the GI50 in assay [1] is > 100 µM (inactive); in assay [2], > 100 µM (inactive); in [3] it was > 100 µM (inactive); in assay [4], 45.5 µM (inactive); in [5], > 100 µM (inactive); in assay [6], > 100 µM (inactive). In addition, the GI50 in [14], in [7], in assay [8], in assay [15], in [9] and in assay [10] was > 100 µM (inactive) in each case. Moreover, the GI50 in assay [16] was > 100 µM; in assay [11], 7.33 µM (inactive); in [12], > 100 µM (inactive); in assay [13], > 100 µM (inactive).
As for `COC(c1cccc(C(O)(C(F)(F)F)C(F)(F)F)c1)(C(F)(F)F)C(F)(F)F`, the GI50 in assay [1] is 22 µM (inactive); in assay [2], 19.4 µM (inactive); in assay [3], 15.7 µM (inactive); in assay [4], 17.5 µM (inactive); in assay [5], 16.9 µM (inactive); in assay [6] it was 19.5 µM (inactive). In addition, the GI50 was 20.1 µM (inactive) in assay [14]; 20.1 µM (inactive) in assay [7]; 17.5 µM (inactive) in [17]; 17.6 µM (inactive) in [15]; 18.3 µM (inactive) in [10]; 19.1 µM in [16]. In addition, in assay [12], the GI50 was 13.5 µM (inactive).
`O=c1[nH]cc(COCC(F)(F)C(F)(F)C(F)(F)C(F)F)c(=O)[nH]1`: the GI50 in assay [1], in assay [2], in assay [3], in assay [4], in assay [5] and in [6] was > 100 µM (inactive) throughout. Besides, the GI50 in assay [7], in [17], in assay [8], in assay [15], in assay [9] and in assay [10] was > 100 µM (inactive) throughout. Besides, the GI50 was > 100 µM in assay [16], > 100 µM (inactive) in [11], > 100 µM (inactive) in assay [12] and > 100 µM (inactive) in [13].
Turning to `COc1cccc(NC(=O)CC(=O)n2nc(C)c(/N=N/c3ccccc3)c2C)c1`, the GI50 in assay [1] is 69.2 µM (inactive); in [2], > 100 µM (inactive); in [3] it was > 100 µM (inactive); in assay [4], 47.8 µM (inactive); in assay [5], > 100 µM (inactive); in assay [6], > 100 µM (inactive). In addition, the GI50 in assay [14] is 76 µM (inactive); in assay [7], > 100 µM (inactive); in assay [17], 83.6 µM (inactive); in assay [15], > 100 µM (inactive); in assay [10] it was > 100 µM (inactive); in [12], > 100 µM (inactive). In assay [13], the GI50 is 76.4 µM (inactive).
With `O=C1c2ccccc2CC1C1(O)C(=O)Nc2c(Cl)cc(Cl)cc21` (centres undefined), the GI50 in assay [1] is 30.5 µM (inactive); in [2] it was 37.1 µM (inactive); in assay [3], 47.9 µM (inactive); in assay [4], 61.9 µM (inactive); in assay [6] it was 47.2 µM (inactive); in assay [7] it was > 100 µM (inactive). The GI50 in [17] is 61.8 µM (inactive); in [8], 26.6 µM (inactive); in assay [15], > 100 µM (inactive); in assay [9] it was 30.8 µM (inactive); in assay [10], > 100 µM (inactive); in [16], 42.5 µM. The GI50 is 35.9 µM (inactive) in [11], 17.9 µM (inactive) in assay [12] and 27.9 µM (inactive) in assay [13].
In the case of `CCCCc1c2c(nc3c1CCCC3=O)CCCC2`, the GI50 in assay [1], in [2], in assay [3], in assay [5], in assay [6] and in [7] was > 100 µM (inactive) each time. For the same compound, the GI50 is > 100 µM (inactive) in [17]; > 100 µM (inactive) in assay [8]; > 100 µM (inactive) in assay [15]; > 100 µM (inactive) in assay [9]; > 100 µM (inactive) in [10]; > 100 µM in assay [16]. For the same compound, the GI50 in [11], in [12] and in assay [13] was > 100 µM (inactive) each time.
